Conditions: Liquid, Pycnometric method

c1ccc2c(c1)ccc1ccccc12 [phenanthrene]
molar volume [m3/mol]
Conditions	377.69 K	385.54 K	393.38 K	401.26 K	409.13 K	417.06 K	424.84 K
2049 kPa	0.0001679	0.0001688	0.0001698	0.0001708	0.0001717	0.0001728	0.0001738
4049 kPa	0.0001677	0.0001686	0.0001696	0.0001705	0.0001715	0.0001726	0.0001735
6049 kPa	0.0001674	0.0001683	0.0001692	0.0001702	0.0001712	0.0001723	0.0001732
8049 kPa	0.0001672	0.0001681	0.000169	0.00017	0.000171	0.0001719	0.0001729
10049 kPa	0.000167	0.0001679	0.0001689	0.0001698	0.0001709	0.0001718	0.0001727

Reference: the NIST ThermoML archive (doi:10.1021/je101058b)
